Test results published in patent publication US5627173A, “Phosphonoacetic acid derivatives and their use for treating degenerative joint disorders” (Hoechst Aktiengesellschaft, priority 1995, dated 1997).
≈ marks a conversion by molar mass, not a printed value.

Key:
[1] = tested on: isolated guinea pig trachea; test: Antagonism of KCl-induced contraction of the isolated guinea pig trachea; details: Cavia porcellus; agonist KCl; read-out: Anticontractile effect (trachea), concentration range needed to bring about a dilatation corresponding to the ED50 range
Excerpt: (§1) The compounds according to the invention are used as antagonists of the contraction of various parts of organs, in this case the isolated guinea pig trachea. The agonists used were KCl, PGF2a, calcium ionophore A23187 and substance P:
Products with a non-specific effect generally show a spasmolytic effect with respect to all agonists. KCI is representative here of non-specific, receptor-independent contraction because KCl-induced contractions are produced predominantly physically, that is to say by increasing the K+ concentration in the outside medium, and change the resting potential of the cell.
(§2) The guinea pigs were sacrificed by lethal anesthesia with laughing gas. The trachea was dissected out over its entire length and cut into 15 individual cartilage rings. In each case five rings were connected together to form a chain and fixed in an organ bath under a preload of 3 g. After an equilibration period of 45 minutes, a contraction was induced with the agonist. Cumulative addition of the antagonist (test product) took place at the plateau 5 of the maximum. Evaluation took place as % change in strength based on the maximum contraction. The test was carried out at 37° C., and the physiological nutrient solution used was a modified Krebs-Henseleit solution through which 95% by volume 02 and 5% by volume CO2 was bubbled.
(§3) Test animals: Albino guinea pigs (102), weight: 200 to 300 g, male or female
(§4) Composition of the organ bath (nutrient solution):
(§5) Vehicle: Double-distilled water, ethanol or isopropanol; Administration: into the organ bath Number of administrations: cumulative, single doses for SP

[2] = tested on: isolated guinea pig trachea; test: Antagonism of PGF2α-induced contraction of the isolated guinea pig trachea; details: Cavia porcellus; agonist PGF2α; read-out: Anticontractile effect (trachea), concentration range needed to bring about a dilatation corresponding to the ED50 range
Excerpt: as §1
Inhibition of contractions induced by this cyclooxygenase product is possible only by competitive antagonism at the receptor or of the downstream signal pathway.
as §2, §3, §4, §5

[3] = tested on: isolated guinea pig trachea; test: Antagonism of calcium ionophore A23187-induced contraction of the isolated guinea pig trachea; details: Cavia porcellus; agonist Ca ionophore A23187; read-out: Anticontractile effect (trachea), concentration range needed to bring about a dilatation corresponding to the ED50 range
Excerpt: as §1
c) Calcium ionophore A23187 (Calbiochem, Bad Soden) brings about, due to increased uptake of calcium ions, an activation of all calcium-dependent signal cascades in the cell.
as §2, §3, §4, §5

[4] = tested on: isolated guinea pig trachea; test: Antagonism of substance P-induced contraction of the isolated guinea pig trachea; details: Cavia porcellus; agonist substance P; read-out: Anticontractile effect (trachea), concentration range needed to bring about a dilatation corresponding to the ED50 range
Excerpt: as §1
Antagonism is possible on the one hand by specific receptor antagonists, and on the other hand by inhibition of the downstream signal pathway.
as §2, §3, §4, §5

[5] = tested on: isolated strips of guinea pig lung; test: Antagonism of LTD4-induced contraction of isolated strips of guinea pig lung; details: Cavia porcellus; agonist LTD4; read-out: Anticontractile effect (lung), concentration range corresponding to the IC50 value
Excerpt: (§6) The test was based on the same principle as the test indicated in Pharmacological Test 5; however, strips of lung were used in this case.
(§7) The guinea pig was sacrificed under anesthesia with laughing gas. The entire lung tract was cut out starting from the trachea. The lobes of the lungs were cut in circular fashion to produce strips about 3 mm wide. The strips of the upper lobes were divided up in order to obtain a total of six strips of approximately equal size. The strips were suspended in the organ baths under a preload of 4 g. Modified Krebs-Henseleit solutions were used as nutrient solution. When platelet activating factor (PAF) was used as agonist, the composition of this solution corresponded to that for the agonist SP in Pharmacological Test 5; a Krebs-Henseleit solution as in the case of the agonist KCI (Pharm. Test 5) was used for the agonist LTD4. 95% by volume 02, 5% by volume CO2 was bubbled through the bath, and the bath temperature was 37° C. The test is carried out by a therapeutic/cumulative method with dose levels of 1, 3, 6 and 10 μg/ml.
(§8) The test animals, organ bath, vehicle, mode of administration corresponded to that stated for Pharmacological Test 5.

[6] = tested on: isolated strips of guinea pig lung; test: Antagonism of PAF-induced contraction of isolated strips of guinea pig lung; details: Cavia porcellus; agonist PAF; read-out: Anticontractile effect (lung), concentration range corresponding to the IC50 value
Excerpt: as §6, §7, §8

[7] = tested on: Wistar-Lewis rats; test: Adjuvant arthritis; type: in vivo; details: 12.6 mg/kg intraperitoneal, twice a day for 18 days
Protocol: The investigations were carried out as described in EP 50 42 740.

[8] = tested on: RAW 264.7 cells; test: Release of tumor necrosis factor α from RAW 264.7 cells; type: cell-based; details: Mus musculus, RAW264.7, LPS, read-out: inhibition of TNFα formation compared with an untreated control
Protocol: (§9) Culture medium: DMEM+10% FCS+penicillin/streptomycin (50 U/SO μg/ml)
(§10) Culture conditions: 37° C., 10% CO2
(§11) Culture dishes: 24-well dishes
(§12) In each case 10^6 cells/ml/well were incubated for 24 hours (h)
(§13) Addition of 10 μl of test substance (=100 μM in the test, dissolved in double-distilled water)
Addition of 50 μl of lipopolysaccharide (LPS) from E. coli (=10 pg/ml in the test, dissolved in culture medium) […]
Tumor necrosis factor α was determined using a Factortest X mouse TNFα ELISA kit from Genzyme (R(1sselsheim, Geromany), Order no. 80-2802-00.

[9] = tested on: RAW 264.7 cells; test: Release of substance P from RAW 264.7 cells; type: cell-based; details: Mus musculus, RAW264.7, stimulated by 50 ng of LPS for 4 hours, read-out: inhibition of substance P production
Protocol: as §9, §10, §11, §12, §13
Release of substance P took place as described for TNFα, but the cells were stimulated by 50 ng of LPS for 4 hours. Substance P was determined using a substance P RIA test kit from Peninsula Laboratories (Belmont, USA) Test no. RIK-7451.

[10] = tested on: matrix metalloproteases; test: Inhibition of matrix metalloproteases (MMP from rabbit synoviocytes HIG-82, fluorescent substrate); type: biochemical
Protocol: After confluent cell growth, the MMP expression was induced in the serum-free 3F12 HAM medium by adding 0.3 μmol/l phorbol 12-myristate 13-acetate. The supernatant was removed after incubating at 37° C. for 20 hours.
Activation of the MMP: The supernatant was activated with trypsin (5 μg/ml). After 15 minutes at 37° C., the activation was stopped by adding 1 mmol/l phenylmethylsulfonyl fluoride (PMSF) and incubating for a further 10 minutes. The total volume of the mixture was 210 μl.
The test substance was added in the stated concentration (see table). […] The reaction was stopped after 30 minutes by adding 10 mmol/l EDTA. The total-volume of the mixture was 320 μl . The parameters measured were the fluorescence intensities at […]. In order to take account of the possible intrinsic fluorescence of the test substances, the fluorescence intensities from parallel measurements without substrate were subtracted from the measurements with substrate. All the steps took place at 20° C.

[11] = tested on: rat liver microsomes; test: Inhibition of microsomal lipid peroxidation; type: biochemical; details: 37° C., 10 minutes
Protocol: Obtaining rat liver microsomes: All steps were carried out at 0° C. The liver from a rat was thoroughly rinsed with 0.9% NaCl solution to remove all the hemoglobin. The liver wascut into pieces and then treated in a Potter in 10 mM Tris/HCl pH 7.4; 250 mM sucrose (10 ml of buffer/g of liver). The first centrifugation was at 600 x g for 55 minutes to remove cell detritus. The supernatant was then centrifuged at 12000 x g for 10 minutes and was adjusted with solid CaCI2 (117.6 mg/100 ml) to a concentration of 8 mM. A microsome pellet was obtained by centrifugation at 25000 x g (15 minutes). This pellet was ohomogenized in the same volume of buffer (10 mM Tris/BCI pH 7.4; 150 mMKCl) and again centrifuged at 25000 x g for 15 minutes.
Peroxidation by rat liver microsomes: A test mixture consisted of 20 μl of microsomes (100 mg/ml), see above, dissolved in a buffer (250 mM Tris/HCI pB 6.6; 750 mMKCl), 10 iL1 of 50 mM MgCI2, 10 μl of 200 mM isocitric acid, 10 μl of 4 mM NADP (3.028 mg/ml in water), 10 μl of 25 mM niacinamide, 10 μl of isocitrate dehydrogenase (Boehringer, diluted 1:100) and 20 μl of water or test substance. The reaction was started with 10 μl of 0.25 mM FeSO4. […] The malonaldehyde which was formed was converted by adding 500 μl of 0.67 percent thiobarbituric acid and incubating at 90° C. for 30 min into a pink-colored compound which was measured in a photometer at 532 nm. […]

[12] = tested on: interleukin-1β; test: Inhibition of release of interleukin-1β from human mononuclear cells; type: cell-based; details: 10 .parallel.mol/l (so in the source), IL-1β, LPS-stimulated, 20 to 22 hours
Protocol: Obtaining mononuclear cells from human blood: 10 ml of human blood stabilized with 1 ml of 3.8 percent sodium citrate solution were diluted with 10 ml of PM16 (Serra, Heidelberg), and an underlayer of 15 ml of Lymphoprep (Dr. Molter GmbH, Heidelberg) was introduced. The samples were centrifuged at 400 x g (Minifuge 2 Heraeus, Osterode) at room temperature for 40 minutes. The mononuclear cells were visible as a white ring at the Lymphoprep/plasma boundary. This ring was cautiously removed with a syringe, diluted with the same volume of PM16 and centrifuged at 400 x g for 10 minutes. The precipitate was washed with ^~ 10 ml of RPMI1640 (+300 mg/I L-glutamine, Gibco, Eggenstein). After the cells had been suspended in ^~ 1 ml of RPMI1640 (+300 mg/I L-glutamine, +25 mM HEPES, +100 μg/ml streptomycin, +100 μg/ml penicillin), the cell density was determined with a JT Coulter Counter (Coulter Diagnostics) and adjusted to 5.10^6 /ml. 90% of the resulting cells were lymphocytes and 10% were monocytes.
Inhibition of release of interleukin-1β: 230 μl of mononuclear cells were incubated with 10 μl of test substance (10 μM in dimethyl sulfoxide (DMSO)/water=1/10) and 10 μl of a lipopolysaccharide solution (500 μg dissolved in 1 ml of DMSO and diluted 1/10 with water before starting the test, from Salmonella abortus equi, (Sigma, Deisenhofen) at 37° C., 5% CO2 for 20 to 22 hours. The samples were cooled to 0° C. in an ice bath and centrifuged in a Sigma centrifuge (2 minutes; 2000 revolutions per minute (rpm)). Aliquots of the supernatant were determined using a commercially available ELISA 5(Biermann, Bad Nauheim).
All active substances were tested at a concentration of 10 .parallel.mol/l. IL-1β release was tested in each case.

[13] = tested on: phosphodiesterase III; test: Inhibition of phosphodiesterase III activity; type: biochemical; details: 100 μM
Protocol: The test was carried out with the phosphodiesterase of Boehringer Mannheim (Mannheim, Germany), Order no. 108 243 by the method of T. SAEKI, I. SAITO, Biochem. Pharm. 46, No. 5, […], pages 833-839.

SMILES	EC50 [1] [µg/mL]	EC50 [2] [µg/mL]	EC50 [3] [µg/mL]	EC50 [4] [µg/mL]	IC50 [5] [µg/mL]	IC50 [6] [µg/mL]	inhibition of the increase in the paw volume compared with an untreated control group [7] [%]	inhibition at 100 µM ([8]; incubation for 4 h) [%]	inhibition at 100 µM [9] [%]	Inhibition of MMP, Inhibition (%) ([10]; 10 μM)	Inhibition of MMP, Inhibition (%) ([10]; 30 μM)	Inhibition of MMP, Inhibition (%) ([10]; 100 μM)	IC50 [11] [nM]	inhibition at 10 µM [12] [%]	inhibition at 100 µM ([8]; incubation for 2.5 hours) [%]	inhibition of enzyme activity (phosphodiesterase III) [13] [%]
CCOP(=O)(OCC)/C(C#N)=C/c1ccc(OC)c(OC)c1 [Compound 38, Z- and E-2-(diethoxyphosphinyl)-3-(3,4-dimethoxyphenyl) acrylonitrile]	> 10	1 to 3 (≈ 3.07 to 9.22 µM)	~3 (≈ 9.22 µM)	3 to 10 (≈ 9.22 to 30.7 µM)	~1 (≈ 3.07 µM)	< 0.1	98	16	100	–	–	–	–	–	–	–
CCOC(=O)C(=Cc1ccc(O)c(O)c1)P(=O)(OCC)OCC [Compound 47, Ethyl 2-(diethoxyphosphinyl)-3-(3,4-dihydroxyphenyl) propenoate]	–	–	–	–	–	–	–	–	–	13	24	55	2100	80	–	–
CCOP(=O)(OCC)/C(C#N)=C\c1ccc(OC)c(OC)c1 [Compound 37, Z- and E-2-(diethoxyphosphinyl)-3-(3,4-dimethoxyphenyl) acrylonitrile]	~10 (≈ 30.7 µM)	~3 (≈ 9.22 µM)	~1 (≈ 3.07 µM)	~3 (≈ 9.22 µM)	0.1 to 0.3 (≈ 0.307 to 0.922 µM)	1 to 3 (≈ 3.07 to 9.22 µM)	–	–	100	–	–	–	–	–	55	39
